According to patent US11964949B2, “Substituted phenyloxazolidinones for antimicrobial therapy” (priority 2015, dated 2024):
In brackets after ≈: the same amount, converted by molar mass. Like-named read-outs stand apart in the source and are kept apart here.

Experiments:
[1] = system: mitochondrial protein synthesis (MPS) in H9C2 cells; assay: In vitro assay for MPS inhibition (COX-1 / SDH-A ELISA in H9C2 cells); assay type: cell-based, rat; conditions: Rattus norvegicus, read-out: IC50 (μM) MPS inhibition
[2] = system: Mycobacterium tuberculosis H37Rv; assay: In vitro assay for antimicrobial susceptibility (microplate Alamar blue, MIC); assay type: cell-based; conditions: Mycobacterium tuberculosis, read-out: MIC (μg/mL) against H37Rv
[3] = 120 h, H9C2 cells, 5 days incubation
[4] = M. tuberculosis H37Rv, 7H9 broth, Alamar blue

SMILES | IC50 [1, 3] [µM] | MIC [2, 4] [µg/mL] | IC50 ([1]; H9c2, 120 h) [µM] | MIC ([2]; H37RV) [µg/mL]
CCCC(=O)NC[C@H]1CN(c2ccc(N3CCCSCCC3)c(F)c2)C(=O)O1 [OBD-003, (S)—N-((3-(3-fluoro-4-(1,5-thiazocan-5-yl)phenyl)-2-oxooxazolidin-5-yl)methyl)buty ramide] | > 100 | 0.33 (≈ 0.806 µM) |  | 
CCCC(=O)NC[C@H]1CN(c2ccc(N3CCC[S+]([O-])CCC3)c(F)c2)C(=O)O1 [OBD-004, (S)—N-((3-(3-Fluoro-4-(1-oxido-1,5-thiazocan-5-yl)phenyl)-2-oxooxazolidin-5-yl)methyl)butyramide] | 15.8 | 3.34 (≈ 7.84 µM) |  | 
CCCC(=O)NC[C@H]1CN(c2ccc(N3CCCSCC3)c(F)c2)C(=O)O1 [OBD-005, (S)—N-((3-(3-fluoro-4-(1,4-thiazepan-4-yl)phenyl)-2-oxooxazolidin-5-yl)methyl)buty ramide] | 15.6 | 0.055 (≈ 0.139 µM) |  | 
CCCC(=O)NC[C@H]1CN(c2ccc(N3CCC[S+]([O-])CC3)c(F)c2)C(=O)O1 (stereo partly drawn) [OBD-006, N-(((5S)-3-(3-Fluoro-4-(1-oxido-1,4-thiazepan-4-yl)phenyl)-2-oxooxazolidin-5-yl)methyl)butyramide] | 7.49 | 0.49 (≈ 1.19 µM) |  | 
CCCC(=O)NC[C@H]1CN(c2ccc(N3CCCS(=O)(=O)CC3)c(F)c2)C(=O)O1 [OBD-007, (S)—N-((3-(4-(1,1-Dioxido-1,4-thiazepan-4-yl)-3-fluorophenyl)-2-oxooxazolidin-5-yl)methyl)butyramide] | 19.8 | 0.46 (≈ 1.08 µM) |  | 
O=C1O[C@@H](Cn2cncn2)CN1c1ccc(N2CCCSCCC2)c(F)c1 [OBD-008, (R)-5-((1H-1,2,4-triazol-1-yl)methyl)-3-(3-fluoro-4-(1,5-thiazocan-5-yl)phenyl)oxazolidin-2-one] | 29.9 | 3.51 (≈ 8.97 µM) |  | 
O=C1O[C@@H](Cn2cncn2)CN1c1ccc(N2CCC[S+]([O-])CCC2)c(F)c1 [OBD-009, (R)-5-((1H-1,2,4-Triazol-1-yl)methyl)-3-(3-fluoro-4-(1-oxido-1,5-thiazocan-5-yl)phenyl)oxazolidin-2-one] | > 100 | 21.1 (≈ 51.7 µM) |  | 
CCCC(=O)NC[C@H]1CN(c2ccc(N3C4CCC3CSC4)c(F)c2)C(=O)O1 [OBD-016, N—(((S)-3-(4-(3-thia-8-aza-bicyclo[3.2.1]octan-8-yl)-3-fluorophenyl)-2-oxooxazolidin-5-yl)methyl)butyramide] |  |  | 13 | 0.486 (≈ 1.19 µM)
CCCC(=O)NC[C@H]1CN(c2ccc(N3[C@@H]4CC[C@H]3C[S+]([O-])C4)c(F)c2)C(=O)O1 (stereo partly drawn) [OBD-017, N-(((5S)-3-(3-Fluoro-4-((1R,5S)-3-oxido-3-thia-8-azabicyclo[3.2.1]octan-8-yl)phenyl)-2-oxooxazolidin-5-yl)methyl)butyramide] |  |  | 41 | 5.8 to 6.3 (≈ 13.7 to 14.9 µM)
CCCC(=O)NC[C@H]1CN(c2cc(F)c(N3C4CCC3CSC4)c(F)c2)C(=O)O1 [OBD-029, N—(((S)-3-(4-(3-thia-8-aza-bicyclo[3.2.1]octan-8-yl)-3,5-difluorophenyl)-2-oxooxazolidin-5-yl)methyl)butyramide] |  |  | > 100 | 0.11 (≈ 0.259 µM)
CC(=O)NC[C@H]1CN(c2cc(F)c(N3CC4CCC(C3)O4)c(F)c2)C(=O)O1 [OBD-048] | 5 | 0.39 (≈ 1.02 µM) |  | 
CC(=O)NC[C@H]1CN(c2cc(F)c(N3C4CCC3COC4)c(F)c2)C(=O)O1 [OBD-051] |  |  | 6 | 0.6 (≈ 1.57 µM)
COC(=O)NC[C@H]1CN(c2cc(F)c(N3C4CCC3COC4)c(F)c2)C(=O)O1 [OBD-052] |  |  | 13 | 0.95 (≈ 2.39 µM)
O=C1OC(Cn2ccnn2)CN1c1cc(F)c(N2CC3CCC(C2)O3)c(F)c1 (stereo not shown) [OBD-054, 5-((1H-1,2,3-triazol-1-yl)methyl)-3-(4-(8-oxa-3-aza-bicyclo[3.2.1]octan-3-yl)-3,5-difluorophenyl)oxazolidin-2-one] | 6 to 31 | 0.5 (≈ 1.28 µM) |  | 
O=C1O[C@@H](Cn2ccnn2)CN1c1cc(F)c(N2C3CCC2COC3)c(F)c1 [OBD-055, (5R)-5-((1H-1,2,3-triazol-1-yl)methyl)-3-(4-(3-oxa-8-aza-bicyclo[3.2.1]octan-8-yl)-3,5-difluorophenyl)oxazolidin-2-one] |  |  | 15 | 1.3 (≈ 3.32 µM)
O=C1O[C@@H](CNc2ccon2)CN1c1ccc(N2CC3(COC3)C2)c(F)c1 [OBD-056] | 17 | 1.9 (≈ 5.08 µM) |  | 
NC[C@H]1CN(c2ccc(N3CC4(COC4)C3)c(F)c2)C(=O)O1 [OBD-057] | 67 | 0.4 (≈ 1.3 µM) |  | 
O=C1O[C@@H](CNc2ccon2)CN1c1cc(F)c(N2CC3(COC3)C2)c(F)c1 [OBD-061] | 29 | 0.8 (≈ 2.04 µM) |  | 
NC[C@H]1CN(c2ccc(N3C4CCC3CSC4)c(F)c2)C(=O)O1 [OBD-081, (5S)-3-(4-(3-thia-8-aza-bicyclo[3.2.1]octan-8-yl)-3-fluorophenyl)-5-(aminomethyl)oxazolidin-2-one] |  |  | 77 | 0.47 (≈ 1.39 µM)
NC[C@H]1CN(c2cc(F)c(N3C4CCC3CSC4)c(F)c2)C(=O)O1 [OBD-083, (5S)-3-(4-(3-thia-8-aza-bicyclo[3.2.1]octan-8-yl)-3,5-difluorophenyl)-5-(aminomethyl)oxazolidin-2-one] |  |  | 20 | 0.05 (≈ 0.141 µM)
NC[C@H]1CN(c2ccc(N3C4CCC3C[S+]([O-])C4)c(F)c2)C(=O)O1 (stereo partly shown) [OBD-085] |  |  | > 100 | 1.1 (≈ 3.11 µM)

SMILES | IC50 [1, 3] [µM] | MIC [2, 4] [µg/mL] | IC50 ([1]; H9c2, 120 h) [µM] | MIC ([2]; H37RV) [µg/mL]
NC[C@H]1CN(c2cc(F)c(N3C4CCC3C[S+]([O-])C4)c(F)c2)C(=O)O1 (stereo partly shown) [OBD-087] |  |  | > 100 | 0.86 (≈ 2.32 µM)
CC(=O)NC[C@H]1CN(c2ccc(N3CC4CCC(C3)O4)c(F)c2)C(=O)O1 [OBD-110] | 7 | 0.45 (≈ 1.24 µM) |  | 
COC(=O)NC[C@H]1CN(c2ccc(N3CC4CCC(C3)O4)c(F)c2)C(=O)O1 [OBD-111] | 7 | 0.49 (≈ 1.29 µM) |  | 
O=C1O[C@@H](CO)CN1c1ccc(N2CC3CCC(C2)O3)c(F)c1 [OBD-112, 3-(4-(8-oxa-3-aza-bicyclo[3.2.1]octan-3-yl)-3-fluorophenyl)-5-(hydroxymethyl)oxazolidin-2-one] | > 100 | 3.5 (≈ 10.9 µM) |  | 
NC[C@H]1CN(c2ccc(N3CC4CCC(C3)O4)c(F)c2)C(=O)O1 [OBD-113, 3-(4-(8-oxa-3-aza-bicyclo[3.2.1]octan-3-yl)-3-fluorophenyl)-5-(aminomethyl)oxazolidin-2-one] | > 100 | 0.39 (≈ 1.21 µM) |  | 
O=C1O[C@@H](CO)CN1c1cc(F)c(N2CC3CCC(C2)O3)c(F)c1 [OBD-114, 3-(4-(8-oxa-3-aza-bicyclo[3.2.1]octan-3-yl)-3,5-difluorophenyl)-5-(hydroxymethyl)oxazolidin-2-one] | > 100 | 1.7 (≈ 5 µM) |  | 
CCCC(=O)NC[C@H]1CN(c2cc(F)c(N3C4CCC3C[S+]([O-])C4)c(F)c2)C(=O)O1 (stereo partly shown) [OBD-242] |  |  | > 100 | 0.61 (≈ 1.38 µM)
O=C(NC[C@H]1CN(c2cc(F)c(N3CC4CCC(C3)O4)c(F)c2)C(=O)O1)C1CC1 [OBD-252] | 32.3 | 0.47 (≈ 1.15 µM) |  | 
O=C(NC[C@H]1CN(c2cc(F)c(N3CC4CCC(C3)O4)c(F)c2)C(=O)O1)C1CCC1 [OBD-253] | 65 | 0.53 (≈ 1.26 µM) |  | 
CCCC(=O)NC[C@H]1CN(c2cc(F)c(N3CC4CCC(C3)O4)c(F)c2)C(=O)O1 [OBD-254] | 36 | 0.73 (≈ 1.78 µM) |  | 
O=C1O[C@@H](Cn2nccn2)CN1c1ccc(N2CCCSCC2)c(F)c1 [OTB-106, (R)-5-[(2H-1,2,3-Triazol-2-yl)methyl]-3-[3-fluoro-4-(1,4-thiazepan-4-yl)phenyl]oxazolidin-2-one] | > 100 | 2 (≈ 5.3 µM) |  | 
O=C1O[C@@H](Cn2ccnn2)CN1c1ccc(N2CCCSCC2)c(F)c1 [OTB-107, (R)-5-[(1H-1,2,3-Triazol-1-yl)methyl]-3-[3-fluoro-4-(1,4-thiazepan-4-yl)phenyl]oxazolidin-2-one] | 84.9 | 0.03 (≈ 0.0795 µM) |  | 
CCCC(=O)OC[C@H]1CN(c2ccc(N3CCCSCC3)c(F)c2)C(=O)O1 [OTB-108, (R)-[3-[3-Fluoro-4-(1,4-thiazepan-4-yl)phenyl]-2-oxo-5-oxazolidinyl]methyl butyrate] | > 100 | 0.125 (≈ 0.315 µM) |  | 
CCCC(=O)OC[C@H]1CN(c2ccc(N3CCCSCCC3)c(F)c2)C(=O)O1 [OTB-110, (R)-[3-[3-Fluoro-4-(1,5-thiazocan-5-yl)phenyl]-2-oxo-5-oxazolidinyl]methyl butyrate] | > 100 | 0.125 (≈ 0.304 µM) |  | 
O=C(NC[C@H]1CN(c2ccc(N3CCCSCC3)c(F)c2)C(=O)O1)c1ccco1 [OTB-111, (S)—N-[(3-[3-Fluoro-4-(1,4-thiazepan-4-yl)phenyl]-2-oxo-oxazolidin-5-yl)methyl]furan-2-carboxamide] | 60.3 | 0.125 (≈ 0.298 µM) |  | 
O=C(NC[C@H]1CN(c2ccc(N3CCCSCC3)c(F)c2)C(=O)O1)c1cccs1 [OTB-112, (S)—N-[(3-[3-Fluoro-4-(1,4-thiazepan-4-yl)phenyl]-2-oxo-oxazolidin-5-yl)methyl]thiophene-2-carboxamide] | > 100 | 0.5 (≈ 1.15 µM) |  | 
O=C1O[C@@H](Cn2nccn2)CN1c1ccc(N2CCCSCCC2)c(F)c1 [OTB-113, (R)-5-[(2H-1,2,3-triazol-2-yl)methyl]-3-[3-fluoro-4-(1,5-thiazocan-5-yl)phenyl]oxazolidin-2-one] | > 100 | 2 (≈ 5.11 µM) |  | 
CC(=O)NC[C@H]1CN(c2ccc(N3CCCSCCC3)c(F)c2)C(=O)O1 [OTB-114, (S)—N-((3-(3-fluoro-4-(1,5-thiazocan-5-yl)phenyl)-2-oxooxazolidin-5-yl)methyl)acetamide] | 28 to 29 | 0.05 to 0.11 (≈ 0.131 to 0.288 µM) |  | 
CC(C)(C)C(=O)NC[C@H]1CN(c2ccc(N3CCCSCC3)c(F)c2)C(=O)O1 [OTB-115, (S)—N-[[3-(3-Fluoro-4-(1,4-thiazepan-4-yl)phenyl)-2-oxo-oxazolidin-5-yl]methyl]pivalamide] | > 100 | 3.73 (≈ 9.12 µM) |  | 
CCCCS(=O)(=O)NC[C@H]1CN(c2ccc(N3CCCSCC3)c(F)c2)C(=O)O1 [OTB-116, (R)—N-[[3-(3-Fluoro-4-(1,4-thiazepan-4-yl)phenyl)-2-oxo-oxazolidin-5-yl]methyl]butane-1-sulfonamide] | > 100 | 3.81 (≈ 8.56 µM) |  | 
